The source of these data is US7981912B2, “Indole acetic acids exhibiting CRTH2 receptor antagonism and uses thereof” (Wyeth LLC, priority 2004, dated 2011).

The Ki is the dissociation constant of the complex between target and ligand, obtained from inhibition or displacement.

The target of this test is T1, human CRTH2 (Homo sapiens, UniProt Q9Y5Y4).
T1 sequence (Q9Y5Y4 1-395): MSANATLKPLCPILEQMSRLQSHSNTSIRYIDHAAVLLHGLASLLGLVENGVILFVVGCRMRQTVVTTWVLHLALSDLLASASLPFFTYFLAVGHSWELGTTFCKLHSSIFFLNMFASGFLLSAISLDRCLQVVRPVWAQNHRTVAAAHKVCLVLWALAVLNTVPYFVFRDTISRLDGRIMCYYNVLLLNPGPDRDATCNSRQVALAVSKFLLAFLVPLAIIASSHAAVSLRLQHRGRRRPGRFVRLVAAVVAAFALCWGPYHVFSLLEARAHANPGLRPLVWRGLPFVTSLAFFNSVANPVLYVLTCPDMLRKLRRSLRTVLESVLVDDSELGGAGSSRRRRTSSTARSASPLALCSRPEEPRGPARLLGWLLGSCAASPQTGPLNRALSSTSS
Briefly: CRTH-2 binding assay (scintillation proximity assay, inhibition of 3H-PGD2 binding). Also on record: expressed in transfected cells; host or cells: HEK 293EBNA-hCRTH2 (membrane preparation). Particulars: inhibition of 3H-PGD2 (3.6 nM) binding to HEK 293EBNA-hCRTH2 membranes; Ki calculated from IC50. Here is the method:
A CRTH2 binding assay was developed to measure the ability of compounds to inhibit the binding of PGD2 to human CRTH2 using a scintillation proximity assay.
Membranes containing hCRTH2 receptors were prepared from HEK 293EBNA-hCRTH2 cells (a HEK 293EBNA cell line stably expressing human CRTH2). The cells were grown to confluency, harvested and washed with PBS. The cells were resuspended in 10 mM Hepes pH 7.4, 1 mM EDTA and protease inhibitors and incubated for 30 min on ice. The cells were homogenized and centrifuged for 10 min at 1000×g. The supernate was centrifuged for 30 min at 100,000×g and the membrane pellet was then resusupended in 10 mM Hepes pH 7.4 and 1 mM EDTA. The protein concentration of the membrane preparation was determined by Bradford assay (Bio-Rad).
The ability of compounds to inhibit the interaction of PGD2 to human CRTH2 was determined at seven compound concentrations. Compounds were serially diluted in DMSO then diluted into CRTH2 buffer without glycerol (10 mM Hepes pH 7.4, 1 mM EDTA, 10 mM MnCl2) to six times the final desired concentration. 20 μL of the diluted compounds were transferred into non-surface binding 96 well plates (Corning). Each concentration was done in triplicate. In addition to test compounds, each plate contained 12 control wells. Six of these wells contained 20 μL of CRTH2 buffer without glycerol. These wells were used to measure total binding. Six wells contained 20 μL of CRTH2 buffer without glycerol plus 1.5 mM indomethacin. These wells were used to measure non-specific binding. Next, HEK 293EBNA-hCRTH2 membranes were resuspended in CRTH2 buffer with glycerol (10 mM Hepes pH 7.4, 1 mM EDTA, 10 mM MnCl2, 25% glycerol) so that the final concentration was approximately 20 μg protein/100 μL. Polylysine coated yttrium silicate SPA beads (Amershamn) were added to the membrane mix to a concentration of 0.4 mg/100 μL and finally ^3H-PGD2 was added to the membrane/SPA bead mix to 3.6 nM. 100 μL of the membrane/SPA bead/^3H-PGD2 mix was added to each well of the non-surface binding plates containing the diluted compound plus controls. The plates were incubated for 2 hours at room temperature with shaking and then the plates were counted on a Microbeta scintillation counter (Perkin Elmer) for 1 min per well.
IC50 values were determined from the experimental results by nonlinear regression using Prism 4.0 software. The IC50 values were then used in conjunction with the […] for hCRTH2 and the ^3H-PGD2 concentration used in the experiment to calculate the Ki for each compound.

`Cc1c(C2c3ccccc3S(=O)(=O)N2CCO)c2ccccc2n1CC(=O)O` (stereo not drawn) [Example 38, {3-[2-(2-Hydroxy-ethyl)-1,1-dioxo-2,3-dihydro-1H-1λ^6-benzo[d]isothiazol-3-yl]-2-methyl-indol-1-yl}-acetic acid]: the Ki was under 10000 nM.

Regarding `Cc1ccc2c(c1)c(C1c3ccccc3S(=O)(=O)N1CCCOCc1ccccc1)cn2CC(=O)O` (stereo not drawn) [Example 50, {3-[2-(3-Benzyloxy-propyl)-1,1-dioxo-2,3-dihydro-1H-1λ^6-benzo[d]isothiazol-3-yl]-5-methyl-indol-1-yl}-acetic acid], the Ki is under 10000 nM.

`Cc1c(C2(C)c3ccccc3S(=O)(=O)N2CCOc2ccccc2)c2ccccc2n1CC(=O)O` (stereo not drawn) [Example 67, {2-Methyl-3-[3-methyl-1,1-dioxo-2-(2-phenoxy-ethyl)-2,3-dihydro-1H-1-benzo[d]isothiazol-3-yl]-indol-1-yl}-acetic acid]: the Ki is under 1000 nM.

`CN1C(c2cn(CC(=O)O)c3ccccc23)c2ccccc2S1(=O)=O` (stereo not drawn) [Example 14, [3-(2-Methyl-1,1-dioxo-2,3-dihydro-1H-1λ^6-benzo[d]isothiazol-3-yl)-indol-1-yl]-acetic acid]: the Ki is under 10000 nM.

Turning to `Cc1noc(C)c1CN1N=C(c2c(C)n(CC(=O)O)c3ccc(F)cc23)c2ccccc2S1(=O)=O` [Example 90, {3-[2-(3,5-Dimethyl-isoxazol-4-ylmethyl)-1,1-dioxo-1,2-dihydro-1λ^6-benzo[e][1,2,3]thiadiazin-4-yl]-5-fluoro-2-methyl-indol-1-yl}-acetic acid], the Ki is under 100 nM.

As for `Cc1c(C2c3ccccc3S(=O)(=O)N2CCCOc2ccccc2)c2ccccc2n1CC(=O)O` (stereo not drawn) [Example 46, {3-[1,1-Dioxo-2-(3-phenoxy-propyl)-2,3-dihydro-1H-1λ^6-benzo[d]isothiazol-3-yl]-2-methyl-indol-1-yl}-acetic acid], the Ki is under 1000 nM.

As to `Cc1ccc2c(c1)c(C1NS(=O)(=O)c3ccccc31)cn2CC(=O)O` (stereo not drawn) [Example 2, [3-(1,1-Dioxo-2,3-dihydro-1H-1λ^6-benzo[d]isothiazol-3-yl)-5-methyl-indol-1-yl]-acetic acid], the Ki was under 10000 nM.

For `Cc1c(C2=NN(Cc3ccccc3F)S(=O)(=O)c3ccccc32)c2cc(F)ccc2n1CC(=O)O` [Example 81, {3-[2-(2-Fluoro-benzyl)-1,1-dioxo-1,2-dihydro-1λ^6-benzo[e][1,2,3]thiadiazin-4-yl]-5-fluoro-2-methyl-indol-1-yl}-acetic acid], the Ki is under 100 nM.

As for `Cc1c(-c2nn(CC3COc4ccccc4O3)c(=O)c3ccccc23)c2cc(Cl)ccc2n1CC(=O)O` (stereo not drawn) [Example 27, {5-Chloro-3-[3-(2,3-dihydro-benzo[1,4]dioxin-2-ylmethyl)-4-oxo-3,4-dihydro-phthalazin-1-yl]-2-methyl-indol-1-yl}-acetic acid], the Ki is under 100 nM.

In the case of `O=C(O)Cn1cc(C2NS(=O)(=O)c3ccccc32)c2ccccc21` (stereo not drawn) [Example 1, [3-(1,1-Dioxo-2,3-dihydro-1λ^6-benzo[d]isothiazol-3-yl)-indol-1-yl]-acetic acid], the inhibition constant (Ki) was under 10000 nM.

With `Cc1onc(-c2ccccc2)c1CN1C(c2c(C)n(CC(=O)O)c3ccccc23)c2ccccc2S1(=O)=O` (stereo not drawn) [Example 36, {2-Methyl-3-[2-(5-methyl-3-phenyl-isoxazol-4-ylmethyl)-1,1-dioxo-2,3-dihydro-1H-1λ^6-benzo[d]isothiazol-3-yl]-indol-1-yl}-acetic acid], the inhibition constant (Ki) is under 100 nM.

With `Cc1noc(C)c1CN1C(c2c(C)n(CC(=O)O)c3ccccc23)CCS1(=O)=O` (stereo not drawn) [Example 69, {3-[2-(3,5-Dimethyl-isoxazol-4-ylmethyl)-1,1-dioxo-λ^6-isothiazolidin-3-yl]-2-methyl-indol-1-yl}-acetic acid], the Ki is under 100 nM.

As to `CCOC(=O)CN1C(c2c(C)n(CC(=O)O)c3ccc(Cl)cc23)c2ccccc2S1(=O)=O` (stereo not drawn) [Example 59, [5-Chloro-3-(2-ethoxycarbonylmethyl-1,1-dioxo-2,3-dihydro-1H-1 λ^6-benzo[d]isothiazol-3-yl)-2-methyl-indol-1-yl]-acetic acid], the Ki is under 100 nM.

As to `Cc1c(C2=NN(C(C)C)S(=O)(=O)c3ccccc32)c2cc(F)ccc2n1CC(=O)O` [Example 93, [3-(2-Isopropyl-1,1-dioxo-1,2-dihydro-1λ^6-benzo[e][1,2,3]thiadiazin-4-yl)-5-fluoro-2-methyl-indol-1-yl]-acetic acid], the Ki is under 100 nM.

`Cc1c(C2=NN(C(C)c3ccccc3)S(=O)(=O)c3ccccc32)c2cc(F)ccc2n1CC(=O)O` (stereo not drawn) [Example 86, {3-[2-(1-phenyl-ethyl)-1,1-dioxo-1,2-dihydro-1λ^6-benzo[e][1,2,3]thiadiazin-4-yl]-5-fluoro-2-methyl-indol-1-yl}-acetic acid]: the Ki was under 100 nM.

`Cc1c(C2c3ccccc3S(=O)(=O)N2Cc2ccc(F)cc2)c2cc(Cl)ccc2n1CC(=O)O` (stereo not drawn) [Example 60, {5-Chloro-3-[2-(4-fluoro-benzyl)-1,1-dioxo-2,3-dihydro-1H-1λ^6-benzo[d]isothiazol-3-yl]-2-methyl-indol-1-yl}-acetic acid]: the Ki was under 1000 nM.

Take `O=C(O)Cn1cc(C2NS(=O)(=O)c3ccccc32)c2cc(Cl)ccc21` (stereo not drawn) [Example 5, [5-Chloro-3-(1,1-dioxo-2,3-dihydro-1H-1λ^6-benzo[d]isothiazol-3-yl)-indol-1-yl]-acetic acid]: the Ki was under 10000 nM.

Turning to `CN1C(=O)c2ccccc2C1c1cn(CC(=O)O)c2ccccc12` (stereo not drawn) [Example 20, [3-(2-Methyl-3-oxo-2,3-dihydro-1H-isoindol-1-yl)-indol-1-yl]-acetic acid], the Ki was over 10000 nM.

Regarding `O=C(O)Cn1cc(C2c3ccccc3S(=O)(=O)N2Cc2csc(-c3ccc(Cl)cc3)n2)c2ccccc21` (stereo not drawn) [Example 34, (3-{2-[2-(4-Chloro-phenyl)-thiazol-4-ylmethyl]-1,1-dioxo-2,3-dihydro-1H-1λ^6-benzo[d]isothiazol-3-yl}-indol-1-yl)-acetic acid], the Ki is under 1000 nM.

Turning to `Cc1ccc2c(c1)c(C1c3ccccc3S(=O)(=O)N1C(C)C#N)cn2CC(=O)O` (stereo not drawn) [Example 53, {3-[2-(Cyano-methyl-methyl)-1,1-dioxo-2,3-dihydro-1H-1λ^6-benzo[d]isothiazol-3-yl]-5-methyl-indol-1-yl}-acetic acid], the Ki was under 10000 nM.

With `Cc1c(C2c3ccccc3S(=O)(=O)N2c2ccccc2)c2ccccc2n1CC(=O)O` (stereo not drawn) [Example 74, [3-(1,1-Dioxo-2-phenyl-2,3-dihydro-1H-1λ^6-benzo[d]isothiazol-3-yl)-2-methyl-indol-1-yl]-acetic acid], the Ki was under 1000 nM.

With `Cc1c(C2=NN(CCOc3ccccc3)S(=O)(=O)c3ccccc32)c2cc(F)ccc2n1CC(=O)O` [Example 88, {3-[2-(2-Phenoxy-ethyl)-1,1-dioxo-1,2-dihydro-1λ^6-benzo[e][1,2,3]thiadiazin-4-yl]-5-fluoro-2-methyl-indol-1-yl}-acetic acid], the Ki is under 1000 nM.

Regarding `Cc1c(C2=NN(Cc3ccc(Cl)cc3)S(=O)(=O)c3ccccc32)c2cc(F)ccc2n1CC(=O)O` [Example 78, {3-[2-(4-Chloro-benzyl)-1,1-dioxo-1,2-dihydro-1λ^6-benzo[e][1,2,3]thiadiazin-4-yl]-5-fluoro-2-methyl-indol-1-yl}-acetic acid], the Ki was under 1000 nM.

On to `O=C(O)Cn1cc(C2c3ccccc3S(=O)(=O)N2Cc2csc(-c3cccs3)n2)c2ccccc21` (stereo not drawn) [Example 33, {3-[1,1-Dioxo-2-(2-thiophen-2-yl-thiazol-4-ylmethyl)-2,3-dihydro-1H-1λ^6-benzo[d]isothiazol-3-yl]-indol-1-yl}-acetic acid], for which the Ki was under 1000 nM.
